Test results published in US9833455B2, “Preparation and methods of use for ortho-aryl 5-membered heteroaryl-carboxamide containing multi-targeted kinase inhibitors” (Spacefill Enterprises LLC, priority 2011, dated 2017).
Like-named read-outs stand apart in the source and are kept apart here.

Assays:
Assay in all cases: Reaction Biology P33 radiolabeled kinase assay, IC50 and time dependence
Type in all cases: biochemical
ARAF = biological target: T1, ARAF (Homo sapiens, UniProt P10398); settings: for IC50: ATP 10 uM, read-out: Compound IC50* ARAF
T1 construct: purchased Reaction Biology Inc (contract assay)
T1 sequence (P10398 1-606): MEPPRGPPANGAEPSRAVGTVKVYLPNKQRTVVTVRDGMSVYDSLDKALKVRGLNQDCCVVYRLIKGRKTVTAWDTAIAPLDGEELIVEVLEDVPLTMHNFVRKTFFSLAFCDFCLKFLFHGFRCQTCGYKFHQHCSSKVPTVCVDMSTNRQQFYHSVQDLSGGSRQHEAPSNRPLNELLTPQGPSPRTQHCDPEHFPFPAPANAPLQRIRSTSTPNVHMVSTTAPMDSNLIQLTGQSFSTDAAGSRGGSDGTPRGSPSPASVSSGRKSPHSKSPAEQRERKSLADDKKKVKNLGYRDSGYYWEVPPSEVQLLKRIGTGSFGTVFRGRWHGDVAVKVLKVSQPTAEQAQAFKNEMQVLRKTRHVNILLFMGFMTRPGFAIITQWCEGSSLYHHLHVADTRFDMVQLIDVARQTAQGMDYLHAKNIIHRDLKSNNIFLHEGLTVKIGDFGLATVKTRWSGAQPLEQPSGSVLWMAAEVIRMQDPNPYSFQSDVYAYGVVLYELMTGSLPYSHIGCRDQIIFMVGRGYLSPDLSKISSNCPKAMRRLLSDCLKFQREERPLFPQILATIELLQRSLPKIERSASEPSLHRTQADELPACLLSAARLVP
Protocol: (§1) “Inhibiting kinase activity” means to decrease the production of an phosphor-peptide by a particular kinase that can be separated by analytical techniques. For example, a comprehensive platform of kinase, protease, phosphatase and epigenetic assays that utilizes cutting-edge microfluidics and informatics tools to provide accurate and rapid results. Profiling data in this application were determined using these techniques at Nanosyn Inc. IC50 data were provided by Reaction Biology Inc using a P33 radiolabeled kinase assay.
(§2) The observation of potency and isoform selectivity with time-dependency for PI3K-γ appears to be unprecedented in the literature. In addition, these activities combined with inhibition of p38-α, Raf-1, DDR and CSF-1R, would be complimentary and potentially synergistic activities for both the treatment of certain inflammation based conditions and cancers.

Aurora A = biological target: T2, Aurora A (Homo sapiens, UniProt O14965); settings: for IC50: ATP 10 uM, read-out: Compound IC50* Aurora A
T2 construct: purchased Reaction Biology Inc (contract assay)
T2 sequence (O14965 1-403): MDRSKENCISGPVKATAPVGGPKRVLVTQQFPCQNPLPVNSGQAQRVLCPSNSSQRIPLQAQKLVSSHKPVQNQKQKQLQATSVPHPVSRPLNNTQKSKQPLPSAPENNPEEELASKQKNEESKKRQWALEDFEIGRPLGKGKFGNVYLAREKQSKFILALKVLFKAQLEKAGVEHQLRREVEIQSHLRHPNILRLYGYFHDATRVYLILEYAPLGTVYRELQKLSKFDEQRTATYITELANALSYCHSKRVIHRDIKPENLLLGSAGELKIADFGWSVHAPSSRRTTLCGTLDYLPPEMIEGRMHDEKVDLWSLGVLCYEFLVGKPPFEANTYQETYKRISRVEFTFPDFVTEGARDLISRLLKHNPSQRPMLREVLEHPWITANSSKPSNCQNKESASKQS
Protocol: as §1, §2

BRAF (V599E) = biological target: T3, BRAF (V599E) (Homo sapiens, UniProt P15056, V600E); settings: for IC50: ATP 10 uM, read-out: Compound IC50* BRAF (V599E)
T3 construct: purchased Reaction Biology Inc (contract assay)
T3 sequence (P15056 2-766 V600E): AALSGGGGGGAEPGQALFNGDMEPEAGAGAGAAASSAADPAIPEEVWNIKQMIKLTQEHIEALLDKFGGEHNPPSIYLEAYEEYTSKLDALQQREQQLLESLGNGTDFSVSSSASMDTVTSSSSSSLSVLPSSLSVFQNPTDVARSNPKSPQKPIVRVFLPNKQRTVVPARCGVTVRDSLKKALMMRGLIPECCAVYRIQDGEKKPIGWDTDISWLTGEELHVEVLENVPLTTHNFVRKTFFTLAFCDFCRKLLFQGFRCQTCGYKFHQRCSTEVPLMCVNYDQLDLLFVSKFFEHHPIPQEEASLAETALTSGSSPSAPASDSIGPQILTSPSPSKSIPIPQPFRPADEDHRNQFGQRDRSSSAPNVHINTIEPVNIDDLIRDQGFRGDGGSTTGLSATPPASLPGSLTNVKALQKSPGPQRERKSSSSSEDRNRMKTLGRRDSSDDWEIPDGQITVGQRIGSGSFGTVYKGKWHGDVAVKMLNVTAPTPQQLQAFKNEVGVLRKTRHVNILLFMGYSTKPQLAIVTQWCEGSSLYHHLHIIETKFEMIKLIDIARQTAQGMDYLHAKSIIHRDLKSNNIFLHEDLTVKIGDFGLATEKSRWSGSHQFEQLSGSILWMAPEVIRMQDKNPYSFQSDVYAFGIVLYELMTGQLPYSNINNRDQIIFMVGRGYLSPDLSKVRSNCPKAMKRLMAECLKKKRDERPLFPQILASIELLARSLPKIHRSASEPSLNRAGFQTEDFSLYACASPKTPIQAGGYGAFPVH
Protocol: as §1, §2

DDR2 = biological target: T4, DDR2 (Homo sapiens, UniProt Q16832); settings: for IC50: ATP 10 uM, read-out: Compound IC50* DDR2
T4 sequence (Q16832 22-855): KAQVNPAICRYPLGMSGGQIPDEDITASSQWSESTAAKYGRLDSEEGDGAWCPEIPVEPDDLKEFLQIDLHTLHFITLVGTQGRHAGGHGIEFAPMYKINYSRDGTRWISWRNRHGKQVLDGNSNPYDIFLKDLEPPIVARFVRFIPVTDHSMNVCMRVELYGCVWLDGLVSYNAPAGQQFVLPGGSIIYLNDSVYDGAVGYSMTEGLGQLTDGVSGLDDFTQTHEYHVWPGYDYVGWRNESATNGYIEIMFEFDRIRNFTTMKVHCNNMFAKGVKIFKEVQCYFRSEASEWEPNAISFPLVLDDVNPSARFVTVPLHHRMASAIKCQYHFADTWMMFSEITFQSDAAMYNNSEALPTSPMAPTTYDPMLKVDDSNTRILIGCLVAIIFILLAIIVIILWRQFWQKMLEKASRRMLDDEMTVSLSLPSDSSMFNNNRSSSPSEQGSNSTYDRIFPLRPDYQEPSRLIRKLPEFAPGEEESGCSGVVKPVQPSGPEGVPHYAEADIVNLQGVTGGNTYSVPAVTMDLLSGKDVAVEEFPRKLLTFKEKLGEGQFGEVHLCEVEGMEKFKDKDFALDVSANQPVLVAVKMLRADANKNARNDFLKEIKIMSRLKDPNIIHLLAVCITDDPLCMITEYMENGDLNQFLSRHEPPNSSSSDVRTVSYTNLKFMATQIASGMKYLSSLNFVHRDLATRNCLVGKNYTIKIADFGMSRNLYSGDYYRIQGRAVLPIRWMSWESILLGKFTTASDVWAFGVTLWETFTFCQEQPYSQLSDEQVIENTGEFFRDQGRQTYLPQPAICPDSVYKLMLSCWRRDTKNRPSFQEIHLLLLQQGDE
Protocol: as §1, §2

FMS = FMS (Homo sapiens, UniProt P07333); settings: for IC50: ATP 10 uM, read-out: Compound IC50* FMS
FMS, sequence (P07333 20-972): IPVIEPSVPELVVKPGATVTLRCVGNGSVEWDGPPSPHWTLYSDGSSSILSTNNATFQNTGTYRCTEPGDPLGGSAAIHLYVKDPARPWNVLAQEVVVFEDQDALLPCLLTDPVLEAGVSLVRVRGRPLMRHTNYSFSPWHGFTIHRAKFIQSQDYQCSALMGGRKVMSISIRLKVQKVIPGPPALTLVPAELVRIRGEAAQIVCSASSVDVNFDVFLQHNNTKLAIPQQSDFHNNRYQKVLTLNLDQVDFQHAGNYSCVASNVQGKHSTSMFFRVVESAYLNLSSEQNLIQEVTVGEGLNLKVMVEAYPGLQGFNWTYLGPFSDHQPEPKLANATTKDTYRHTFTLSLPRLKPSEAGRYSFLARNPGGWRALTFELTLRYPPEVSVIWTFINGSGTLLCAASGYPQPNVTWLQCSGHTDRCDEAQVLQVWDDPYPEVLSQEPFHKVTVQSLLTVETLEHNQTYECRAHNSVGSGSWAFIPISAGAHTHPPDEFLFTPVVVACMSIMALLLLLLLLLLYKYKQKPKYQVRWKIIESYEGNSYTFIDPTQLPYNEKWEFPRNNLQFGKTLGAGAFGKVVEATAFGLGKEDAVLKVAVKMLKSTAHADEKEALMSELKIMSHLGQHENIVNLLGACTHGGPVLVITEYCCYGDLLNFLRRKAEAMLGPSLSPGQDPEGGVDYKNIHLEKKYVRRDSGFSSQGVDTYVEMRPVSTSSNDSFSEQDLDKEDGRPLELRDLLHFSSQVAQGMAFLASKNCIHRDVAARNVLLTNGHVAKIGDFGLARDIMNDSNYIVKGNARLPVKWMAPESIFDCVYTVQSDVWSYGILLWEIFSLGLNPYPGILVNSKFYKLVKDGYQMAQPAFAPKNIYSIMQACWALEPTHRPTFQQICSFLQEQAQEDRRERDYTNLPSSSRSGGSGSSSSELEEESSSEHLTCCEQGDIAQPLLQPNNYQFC
Protocol: as §1, §2

P38b/MAPK11 = biological target: T5, P38b/MAPK11 (Homo sapiens, UniProt Q15759); settings: for IC50: ATP 10 uM, read-out: Compound IC50* P38b/MAPK11
T5 construct: purchased Reaction Biology Inc (contract assay)
T5 sequence (Q15759 whole entry): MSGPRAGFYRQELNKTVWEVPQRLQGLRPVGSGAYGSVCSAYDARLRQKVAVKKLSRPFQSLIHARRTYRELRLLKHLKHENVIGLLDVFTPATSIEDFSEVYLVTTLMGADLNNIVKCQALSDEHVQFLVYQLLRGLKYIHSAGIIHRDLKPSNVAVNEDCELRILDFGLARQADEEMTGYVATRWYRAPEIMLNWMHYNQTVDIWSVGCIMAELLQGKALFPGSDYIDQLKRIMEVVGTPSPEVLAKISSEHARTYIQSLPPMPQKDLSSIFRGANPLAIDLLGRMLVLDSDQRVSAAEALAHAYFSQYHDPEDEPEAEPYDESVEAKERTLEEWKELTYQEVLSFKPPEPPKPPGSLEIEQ
Protocol: as §1, §2

PDGFR-β = PDGFR-β (Homo sapiens, UniProt P09619); settings: for IC50: ATP 10 uM, read-out: Compound IC50* PDGFR-β
PDGFR-β, sequence (P09619 33-1106): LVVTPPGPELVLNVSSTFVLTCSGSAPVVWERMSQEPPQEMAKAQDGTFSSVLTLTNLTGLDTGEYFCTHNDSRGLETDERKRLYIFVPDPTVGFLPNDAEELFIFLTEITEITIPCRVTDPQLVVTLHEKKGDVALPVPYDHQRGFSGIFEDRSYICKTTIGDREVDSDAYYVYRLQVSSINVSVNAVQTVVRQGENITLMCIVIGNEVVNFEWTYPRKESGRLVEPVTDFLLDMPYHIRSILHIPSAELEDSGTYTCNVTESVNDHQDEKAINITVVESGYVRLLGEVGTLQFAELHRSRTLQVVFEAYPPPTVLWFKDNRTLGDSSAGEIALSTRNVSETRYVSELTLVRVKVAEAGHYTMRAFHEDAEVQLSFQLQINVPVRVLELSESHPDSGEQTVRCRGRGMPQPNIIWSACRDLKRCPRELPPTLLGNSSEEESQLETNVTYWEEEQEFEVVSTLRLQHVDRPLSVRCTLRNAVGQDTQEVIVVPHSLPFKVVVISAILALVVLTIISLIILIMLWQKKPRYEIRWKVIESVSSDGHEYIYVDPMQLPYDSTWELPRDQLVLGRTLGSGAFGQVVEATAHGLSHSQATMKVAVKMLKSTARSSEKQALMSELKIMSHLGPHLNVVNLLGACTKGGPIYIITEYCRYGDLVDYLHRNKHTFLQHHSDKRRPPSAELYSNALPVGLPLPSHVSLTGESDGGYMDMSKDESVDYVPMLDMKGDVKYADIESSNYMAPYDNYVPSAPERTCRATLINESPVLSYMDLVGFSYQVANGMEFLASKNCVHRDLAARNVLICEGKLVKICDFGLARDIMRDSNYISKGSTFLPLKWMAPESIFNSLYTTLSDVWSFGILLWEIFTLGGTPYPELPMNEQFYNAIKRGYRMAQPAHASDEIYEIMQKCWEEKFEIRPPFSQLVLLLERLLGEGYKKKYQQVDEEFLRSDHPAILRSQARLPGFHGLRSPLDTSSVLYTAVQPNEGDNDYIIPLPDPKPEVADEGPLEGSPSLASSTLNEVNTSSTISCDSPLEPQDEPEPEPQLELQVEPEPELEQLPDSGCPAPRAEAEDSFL
Protocol: as §1, §2

PI3K-α = PI3K-α (Homo sapiens, UniProt P42336); settings: for IC50: ATP 10 uM, read-out: Compound IC50* PI3K-α
Protocol: as §1, §2

PI3K-γ = biological target: T6, PI3K-γ (Homo sapiens, UniProt P48736); settings: for IC50: ATP 10 uM, read-out: Compound IC50* PI3K-γ
T6 construct: purchased Reaction Biology Inc (contract assay)
T6 sequence (P48736 whole entry): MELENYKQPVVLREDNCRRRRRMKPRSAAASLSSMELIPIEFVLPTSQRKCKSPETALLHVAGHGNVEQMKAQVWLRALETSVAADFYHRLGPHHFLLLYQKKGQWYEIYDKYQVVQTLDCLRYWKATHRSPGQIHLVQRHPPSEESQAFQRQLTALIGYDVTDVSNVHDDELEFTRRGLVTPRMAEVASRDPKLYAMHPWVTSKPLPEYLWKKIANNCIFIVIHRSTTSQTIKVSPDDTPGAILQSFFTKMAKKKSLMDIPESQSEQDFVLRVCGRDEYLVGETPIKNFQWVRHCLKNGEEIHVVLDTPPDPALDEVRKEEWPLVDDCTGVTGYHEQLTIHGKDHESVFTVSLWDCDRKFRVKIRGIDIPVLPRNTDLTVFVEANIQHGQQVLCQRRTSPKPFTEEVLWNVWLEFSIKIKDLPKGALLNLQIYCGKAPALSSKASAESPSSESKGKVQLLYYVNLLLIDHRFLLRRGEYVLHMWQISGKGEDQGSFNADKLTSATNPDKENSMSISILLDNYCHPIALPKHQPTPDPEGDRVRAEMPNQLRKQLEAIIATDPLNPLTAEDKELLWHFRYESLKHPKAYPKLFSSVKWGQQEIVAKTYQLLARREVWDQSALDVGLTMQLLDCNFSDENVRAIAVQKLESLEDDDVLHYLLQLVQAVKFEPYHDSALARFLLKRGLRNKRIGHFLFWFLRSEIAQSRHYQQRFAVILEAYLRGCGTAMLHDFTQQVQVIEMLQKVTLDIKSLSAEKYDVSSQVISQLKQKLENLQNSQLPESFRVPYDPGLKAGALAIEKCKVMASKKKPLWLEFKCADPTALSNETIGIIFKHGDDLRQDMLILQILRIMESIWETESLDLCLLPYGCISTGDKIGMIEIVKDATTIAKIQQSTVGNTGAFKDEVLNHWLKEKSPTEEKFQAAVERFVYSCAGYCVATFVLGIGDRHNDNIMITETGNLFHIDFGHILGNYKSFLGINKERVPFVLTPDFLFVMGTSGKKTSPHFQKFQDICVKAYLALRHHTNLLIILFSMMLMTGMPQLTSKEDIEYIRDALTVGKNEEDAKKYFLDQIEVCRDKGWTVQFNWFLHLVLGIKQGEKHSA
Protocol: as §1, §2

ROS/ROS1 = biological target: T7, ROS/ROS1 (Homo sapiens, UniProt P08922); settings: for IC50: ATP 10 uM, read-out: Compound IC50* ROS/ROS1
T7 construct: purchased Reaction Biology Inc (contract assay)
Protocol: as §1, §2

## Cc1ccc(NC(=O)c2nc(S(C)(=O)=O)[nH]c2-c2ccc(F)cc2)cc1Nc1nccc(-c2cccnc2)n1 [Inhibitor I-14, 3-(4-(pyridin-3-yl)-pyrimidinyl-2-yl)amino-4-methyl-analine, 5-(4-Fluorophenyl)-2-(methylsulfonyl)-1H-imidazole-4-carboxamide]
ARAF; 15 vs 60 Min preincubation
  Time Dependence Observed? ARAF: Yes
ARAF; preincubation 15 Min
  IC50: 1390 nM
ARAF; preincubation 60 Min
  IC50: 1300 nM
Aurora A; 15 vs 60 Min preincubation
  Time Dependence Observed? Aurora A: No
Aurora A; preincubation 15 Min
  IC50: 2740 nM
Aurora A; preincubation 60 Min
  IC50: 2630 nM
BRAF (V599E); 15 vs 60 Min preincubation
  Time Dependence Observed? BRAF (V599E): No
BRAF (V599E); preincubation 15 Min
  IC50: 194 nM
BRAF (V599E); preincubation 60 Min
  IC50: 194 nM
DDR2; 15 vs 60 Min preincubation
  Time Dependence Observed? DDR2: No
DDR2; preincubation 15 Min
  IC50: 222 nM
DDR2; preincubation 60 Min
  IC50: 221 nM
FMS; 15 vs 60 Min preincubation
  Time Dependence Observed? FMS: No
FMS; preincubation 15 Min
  IC50: 220 nM
FMS; preincubation 60 Min
  IC50: 240 nM
P38b/MAPK11; 15 vs 60 Min preincubation
  Time Dependence Observed? P38b/MAPK11: No
P38b/MAPK11; preincubation 15 Min
  IC50: 1020 nM
P38b/MAPK11; preincubation 60 Min
  IC50: 1080 nM
PDGFR-β; 15 vs 60 Min preincubation
  Time Dependence Observed? PDGFR-β: No
PDGFR-β; preincubation 15 Min
  IC50: 2010 nM
PDGFR-β; preincubation 60 Min
  IC50: 2510 nM
PI3K-α; 15 vs 60 Min preincubation
  Time Dependence Observed? PI3K-α: Yes
PI3K-α; preincubation 15 Min
  IC50: 899 nM
PI3K-α; preincubation 60 Min
  IC50: 387 nM
PI3K-γ; 15 vs 60 Min preincubation
  Time Dependence Observed? PI3K-γ: Yes
PI3K-γ; preincubation 15 Min
  IC50: 127 nM
PI3K-γ; preincubation 60 Min
  IC50: 57.8 nM
ROS/ROS1; 15 vs 60 Min preincubation
  Time Dependence Observed? ROS/ROS1: No
ROS/ROS1; preincubation 15 Min
  IC50: 1250 nM
ROS/ROS1; preincubation 60 Min
  IC50: 1280 nM
